Measurements reported in patent US20170190705A1, “Compositions and Methods for Inhibiting BMP” (THE BRIGHAM AND WOMAN'S HOSPITAL, INC., priority 2014, published 2017).

Tests used:
PLK1 = PLK1 (Homo sapiens, UniProt P53350); assay: Kinome profiling PLK1; type: biochemical; conditions: read-out: Inhibitory activity PLK1; for inhibition at 0.1 µM: 100 nM
Experimental: (§1) . The kinome-wide selectivity was determined following the methods previously reported by Mohedas et al., ACS Chem Biol 2013, 8, 1291-1302 and Sanvitale et al., PLoS One 2013, 8, e62721.

PI3-K-α = PI3-K-α (Homo sapiens, UniProt P42336); assay: Kinome profiling PI3-K-α; type: biochemical; conditions: read-out: Inhibitory activity PI3-K-α; for inhibition at 0.1 µM: 100 nM
Experimental: as §1

ROCK1 = ROCK1 (Homo sapiens, UniProt Q13464); assay: Kinome profiling ROCK1; type: biochemical; conditions: read-out: Inhibitory activity ROCK1; for inhibition at 0.1 µM: 100 nM
Experimental: as §1

HIPK4 = target: T1, HIPK4 (Homo sapiens, UniProt Q8NE63); assay: Kinome profiling HIPK4; type: biochemical; conditions: read-out: Inhibitory activity HIPK4; for inhibition at 0.1 µM: 100 nM
T1 sequence (Q8NE63 1-616): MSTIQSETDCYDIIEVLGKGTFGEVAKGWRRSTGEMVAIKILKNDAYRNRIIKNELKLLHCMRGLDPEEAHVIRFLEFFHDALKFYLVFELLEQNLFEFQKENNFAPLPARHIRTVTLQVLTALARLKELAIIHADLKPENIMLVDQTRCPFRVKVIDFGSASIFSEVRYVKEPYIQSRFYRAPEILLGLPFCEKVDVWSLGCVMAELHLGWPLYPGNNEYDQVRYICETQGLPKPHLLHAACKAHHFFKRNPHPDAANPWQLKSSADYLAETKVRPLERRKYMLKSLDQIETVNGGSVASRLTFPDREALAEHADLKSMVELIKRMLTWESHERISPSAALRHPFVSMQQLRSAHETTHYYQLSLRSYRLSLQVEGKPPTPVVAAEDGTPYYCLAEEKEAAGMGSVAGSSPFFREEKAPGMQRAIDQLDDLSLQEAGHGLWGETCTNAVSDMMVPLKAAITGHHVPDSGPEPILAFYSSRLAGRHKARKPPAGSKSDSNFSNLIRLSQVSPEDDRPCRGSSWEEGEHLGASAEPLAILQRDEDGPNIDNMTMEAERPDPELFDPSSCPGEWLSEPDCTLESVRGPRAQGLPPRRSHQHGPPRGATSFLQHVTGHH
Experimental: as §1

PASK = PASK (Homo sapiens, UniProt Q96RG2); assay: Kinome profiling PASK; type: biochemical; conditions: read-out: Inhibitory activity PASK; for inhibition at 0.1 µM: 100 nM
Experimental: as §1

JAK1 = JAK1 (Homo sapiens, UniProt P23458); assay: Kinome profiling JAK1; type: biochemical; conditions: read-out: Inhibitory activity JAK1; for inhibition at 0.1 µM: 100 nM
Experimental: as §1

SPHK2 = target: T2, SPHK2 (Homo sapiens, UniProt Q9NRA0); assay: Kinome profiling SPHK2; type: biochemical; conditions: read-out: Inhibitory activity SPHK2; for inhibition at 0.1 µM: 100 nM
T2 sequence (Q9NRA0 1-654): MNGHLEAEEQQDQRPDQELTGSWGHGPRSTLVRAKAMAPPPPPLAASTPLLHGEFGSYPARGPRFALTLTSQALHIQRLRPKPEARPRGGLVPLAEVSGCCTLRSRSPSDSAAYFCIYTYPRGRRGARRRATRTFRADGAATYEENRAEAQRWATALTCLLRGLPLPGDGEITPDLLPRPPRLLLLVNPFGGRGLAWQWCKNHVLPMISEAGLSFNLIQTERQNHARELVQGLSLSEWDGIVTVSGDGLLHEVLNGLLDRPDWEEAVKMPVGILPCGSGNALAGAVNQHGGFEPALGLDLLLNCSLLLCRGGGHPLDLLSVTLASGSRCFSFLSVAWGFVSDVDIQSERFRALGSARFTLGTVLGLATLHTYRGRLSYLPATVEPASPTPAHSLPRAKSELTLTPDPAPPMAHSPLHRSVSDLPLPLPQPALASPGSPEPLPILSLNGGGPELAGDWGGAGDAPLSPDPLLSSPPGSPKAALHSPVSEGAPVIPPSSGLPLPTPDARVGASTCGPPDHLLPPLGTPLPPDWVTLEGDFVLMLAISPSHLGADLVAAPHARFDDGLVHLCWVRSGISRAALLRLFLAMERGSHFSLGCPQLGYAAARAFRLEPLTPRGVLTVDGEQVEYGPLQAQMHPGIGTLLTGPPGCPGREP
Experimental: as §1

YES = YES (Homo sapiens, UniProt P07947); assay: Kinome profiling YES; type: biochemical; conditions: read-out: Inhibitory activity YES; for inhibition at 0.1 µM: 100 nM
Experimental: as §1

ALK2 = target: T3, ALK2 (Homo sapiens, UniProt Q04771, Q207D); assay: Thermal shift kinase assay ALK2; type: binding; conditions: for ΔTm at 10 µM: 10 μM inhibitor; for ΔTmDiff.: ALK2 minus ALK5; for ΔT ALK2: Table 6; for ΔT Diff.: Table 6, ALK2 minus ALK5
T3 construct: His tag (TEV-cleavable) (N, cleaved yes); made in house; host or cells: Sf9 insect cells (baculovirus)
T3 sequence (Q04771 201-499 Q207D): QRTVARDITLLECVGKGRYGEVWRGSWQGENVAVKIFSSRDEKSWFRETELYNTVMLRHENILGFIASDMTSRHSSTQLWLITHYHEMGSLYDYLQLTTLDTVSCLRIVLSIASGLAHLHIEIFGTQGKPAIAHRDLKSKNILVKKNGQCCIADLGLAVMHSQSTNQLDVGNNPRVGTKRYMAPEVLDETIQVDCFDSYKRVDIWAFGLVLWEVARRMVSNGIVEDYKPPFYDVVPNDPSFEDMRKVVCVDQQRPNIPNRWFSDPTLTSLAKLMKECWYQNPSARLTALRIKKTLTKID
Experimental: Thermal melting experiments were performed using a Real Time PCR machine Mx3005p (Stratagene) with a protein concentration of 1-2 μM and 10 μM inhibitor as described by Niesen et al., Nat Protoc 2007, 2, 2212-21. Recombinant human kinases for DSF screening were prepared by SGC using the published methods of Sanvitale et al., PLoS One 2013, 8, e62721. The potency and selectivity of certain compounds of the invention based on thermal shift kinase and ligand induced transcriptional activity assays are shown in Table 2.

Chain of PASK (Q96RG2 whole entry): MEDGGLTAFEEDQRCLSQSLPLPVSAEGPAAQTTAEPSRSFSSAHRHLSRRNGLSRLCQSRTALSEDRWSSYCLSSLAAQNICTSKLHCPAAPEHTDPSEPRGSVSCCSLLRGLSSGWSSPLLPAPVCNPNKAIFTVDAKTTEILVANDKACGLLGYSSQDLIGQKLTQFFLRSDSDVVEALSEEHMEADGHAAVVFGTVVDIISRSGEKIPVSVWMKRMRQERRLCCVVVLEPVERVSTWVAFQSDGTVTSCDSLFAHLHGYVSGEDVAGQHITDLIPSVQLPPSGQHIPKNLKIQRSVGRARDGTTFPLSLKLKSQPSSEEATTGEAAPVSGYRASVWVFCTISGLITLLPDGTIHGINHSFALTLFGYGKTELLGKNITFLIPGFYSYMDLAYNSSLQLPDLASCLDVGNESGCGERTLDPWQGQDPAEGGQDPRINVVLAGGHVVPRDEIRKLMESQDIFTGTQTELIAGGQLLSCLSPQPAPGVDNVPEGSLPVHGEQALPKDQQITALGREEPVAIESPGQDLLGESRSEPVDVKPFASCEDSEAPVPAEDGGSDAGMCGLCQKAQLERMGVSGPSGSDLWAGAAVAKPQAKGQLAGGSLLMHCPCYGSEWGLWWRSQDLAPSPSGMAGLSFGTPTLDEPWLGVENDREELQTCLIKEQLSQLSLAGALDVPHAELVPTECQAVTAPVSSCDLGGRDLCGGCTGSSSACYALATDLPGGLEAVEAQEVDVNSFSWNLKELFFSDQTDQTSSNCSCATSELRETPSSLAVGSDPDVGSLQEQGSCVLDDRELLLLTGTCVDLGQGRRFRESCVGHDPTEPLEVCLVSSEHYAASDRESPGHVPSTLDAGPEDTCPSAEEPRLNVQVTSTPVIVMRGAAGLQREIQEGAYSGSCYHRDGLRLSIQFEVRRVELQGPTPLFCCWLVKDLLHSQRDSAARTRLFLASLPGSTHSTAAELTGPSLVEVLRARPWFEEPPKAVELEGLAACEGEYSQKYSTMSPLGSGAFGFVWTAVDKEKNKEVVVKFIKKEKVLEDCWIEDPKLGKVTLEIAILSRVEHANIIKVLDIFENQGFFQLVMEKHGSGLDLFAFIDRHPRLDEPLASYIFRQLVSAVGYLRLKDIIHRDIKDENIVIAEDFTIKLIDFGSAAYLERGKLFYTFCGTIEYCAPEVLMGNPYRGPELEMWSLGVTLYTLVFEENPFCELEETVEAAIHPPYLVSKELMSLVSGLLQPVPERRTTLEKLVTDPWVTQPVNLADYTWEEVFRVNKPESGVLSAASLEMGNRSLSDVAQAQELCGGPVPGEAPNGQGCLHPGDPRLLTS
Chain of PI3-K-α (P42336 whole entry): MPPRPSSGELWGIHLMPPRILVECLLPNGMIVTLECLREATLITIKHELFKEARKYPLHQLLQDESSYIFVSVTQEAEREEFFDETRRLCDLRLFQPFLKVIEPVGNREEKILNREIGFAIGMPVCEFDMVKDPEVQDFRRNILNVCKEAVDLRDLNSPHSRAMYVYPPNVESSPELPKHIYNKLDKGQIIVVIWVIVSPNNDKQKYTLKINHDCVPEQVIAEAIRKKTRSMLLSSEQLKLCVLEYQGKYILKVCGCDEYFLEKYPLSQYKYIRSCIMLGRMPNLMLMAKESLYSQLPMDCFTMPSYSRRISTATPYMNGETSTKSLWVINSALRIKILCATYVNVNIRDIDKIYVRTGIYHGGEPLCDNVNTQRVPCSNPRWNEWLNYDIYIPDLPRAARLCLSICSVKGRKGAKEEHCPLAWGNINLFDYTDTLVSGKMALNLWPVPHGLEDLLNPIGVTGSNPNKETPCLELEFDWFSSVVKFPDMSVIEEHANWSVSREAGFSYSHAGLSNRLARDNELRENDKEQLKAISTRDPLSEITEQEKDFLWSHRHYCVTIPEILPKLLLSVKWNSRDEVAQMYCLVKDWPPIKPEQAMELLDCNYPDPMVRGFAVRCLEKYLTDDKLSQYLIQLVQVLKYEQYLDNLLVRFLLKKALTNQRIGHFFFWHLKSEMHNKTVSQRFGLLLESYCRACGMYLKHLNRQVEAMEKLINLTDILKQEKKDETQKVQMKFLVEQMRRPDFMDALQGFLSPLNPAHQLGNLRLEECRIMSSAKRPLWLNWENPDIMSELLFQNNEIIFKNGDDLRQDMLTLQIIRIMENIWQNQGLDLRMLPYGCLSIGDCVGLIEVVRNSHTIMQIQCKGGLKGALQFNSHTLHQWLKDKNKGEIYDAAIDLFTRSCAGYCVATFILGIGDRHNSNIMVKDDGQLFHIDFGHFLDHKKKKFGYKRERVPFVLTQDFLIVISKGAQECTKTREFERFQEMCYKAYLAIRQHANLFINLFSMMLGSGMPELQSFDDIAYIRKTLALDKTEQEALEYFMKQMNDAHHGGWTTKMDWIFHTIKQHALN
Chain of PI3-K-α (P27986 whole entry partner): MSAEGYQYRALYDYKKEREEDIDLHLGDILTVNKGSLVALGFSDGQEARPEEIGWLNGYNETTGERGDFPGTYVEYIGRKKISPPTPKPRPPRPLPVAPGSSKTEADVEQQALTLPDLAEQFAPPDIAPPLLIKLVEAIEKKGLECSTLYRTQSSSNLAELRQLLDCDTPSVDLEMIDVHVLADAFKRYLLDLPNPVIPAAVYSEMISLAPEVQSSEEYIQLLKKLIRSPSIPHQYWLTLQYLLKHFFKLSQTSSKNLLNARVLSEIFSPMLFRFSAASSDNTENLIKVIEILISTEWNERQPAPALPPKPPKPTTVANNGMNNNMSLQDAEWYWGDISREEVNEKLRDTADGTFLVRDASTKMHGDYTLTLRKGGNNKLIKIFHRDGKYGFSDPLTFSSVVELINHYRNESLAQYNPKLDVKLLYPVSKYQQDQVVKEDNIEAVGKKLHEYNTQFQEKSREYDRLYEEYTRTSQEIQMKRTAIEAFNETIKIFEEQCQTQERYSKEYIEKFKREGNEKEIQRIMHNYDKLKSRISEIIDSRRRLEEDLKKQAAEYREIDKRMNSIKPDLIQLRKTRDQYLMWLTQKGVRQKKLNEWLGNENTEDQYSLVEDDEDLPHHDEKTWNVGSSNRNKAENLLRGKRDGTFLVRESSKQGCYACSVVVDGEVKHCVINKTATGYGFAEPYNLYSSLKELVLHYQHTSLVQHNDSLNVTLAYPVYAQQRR
Chain of ROCK1 (Q13464 whole entry): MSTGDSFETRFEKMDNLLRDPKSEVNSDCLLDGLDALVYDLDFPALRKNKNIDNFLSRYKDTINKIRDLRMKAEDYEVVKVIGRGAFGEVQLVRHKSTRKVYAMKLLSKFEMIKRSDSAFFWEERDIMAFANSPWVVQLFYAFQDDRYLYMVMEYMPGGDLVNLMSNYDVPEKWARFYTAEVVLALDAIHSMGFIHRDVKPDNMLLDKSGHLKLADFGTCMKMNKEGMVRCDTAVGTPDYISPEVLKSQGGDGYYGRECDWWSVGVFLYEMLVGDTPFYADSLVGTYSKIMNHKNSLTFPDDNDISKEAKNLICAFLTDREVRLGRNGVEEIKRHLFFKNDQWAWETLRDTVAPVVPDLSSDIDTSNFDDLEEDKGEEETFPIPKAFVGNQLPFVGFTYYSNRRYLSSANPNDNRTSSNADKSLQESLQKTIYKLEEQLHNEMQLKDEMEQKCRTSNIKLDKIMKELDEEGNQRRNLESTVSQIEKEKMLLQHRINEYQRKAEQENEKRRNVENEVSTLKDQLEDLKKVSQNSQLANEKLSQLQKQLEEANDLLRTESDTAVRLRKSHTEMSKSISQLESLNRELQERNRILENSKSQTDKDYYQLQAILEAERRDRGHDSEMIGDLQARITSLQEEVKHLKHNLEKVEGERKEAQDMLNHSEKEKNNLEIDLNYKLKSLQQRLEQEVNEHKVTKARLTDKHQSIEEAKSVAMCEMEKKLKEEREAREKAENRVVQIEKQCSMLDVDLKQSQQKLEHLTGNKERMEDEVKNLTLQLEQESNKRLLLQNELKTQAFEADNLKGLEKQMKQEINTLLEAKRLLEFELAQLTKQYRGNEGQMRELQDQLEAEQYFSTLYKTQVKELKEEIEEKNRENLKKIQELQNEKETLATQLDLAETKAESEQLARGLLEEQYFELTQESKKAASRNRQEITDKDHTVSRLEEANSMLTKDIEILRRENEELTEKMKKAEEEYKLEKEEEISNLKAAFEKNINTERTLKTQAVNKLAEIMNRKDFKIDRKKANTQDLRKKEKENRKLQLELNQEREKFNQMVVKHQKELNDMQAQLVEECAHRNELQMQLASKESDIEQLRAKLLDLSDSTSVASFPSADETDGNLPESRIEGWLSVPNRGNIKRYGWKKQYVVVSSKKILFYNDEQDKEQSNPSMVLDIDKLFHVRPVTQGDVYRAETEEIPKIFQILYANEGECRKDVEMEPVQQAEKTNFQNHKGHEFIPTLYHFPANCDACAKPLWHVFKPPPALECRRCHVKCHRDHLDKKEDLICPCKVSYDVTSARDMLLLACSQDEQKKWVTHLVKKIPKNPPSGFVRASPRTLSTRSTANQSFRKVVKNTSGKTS
Chain of YES (P07947 whole entry): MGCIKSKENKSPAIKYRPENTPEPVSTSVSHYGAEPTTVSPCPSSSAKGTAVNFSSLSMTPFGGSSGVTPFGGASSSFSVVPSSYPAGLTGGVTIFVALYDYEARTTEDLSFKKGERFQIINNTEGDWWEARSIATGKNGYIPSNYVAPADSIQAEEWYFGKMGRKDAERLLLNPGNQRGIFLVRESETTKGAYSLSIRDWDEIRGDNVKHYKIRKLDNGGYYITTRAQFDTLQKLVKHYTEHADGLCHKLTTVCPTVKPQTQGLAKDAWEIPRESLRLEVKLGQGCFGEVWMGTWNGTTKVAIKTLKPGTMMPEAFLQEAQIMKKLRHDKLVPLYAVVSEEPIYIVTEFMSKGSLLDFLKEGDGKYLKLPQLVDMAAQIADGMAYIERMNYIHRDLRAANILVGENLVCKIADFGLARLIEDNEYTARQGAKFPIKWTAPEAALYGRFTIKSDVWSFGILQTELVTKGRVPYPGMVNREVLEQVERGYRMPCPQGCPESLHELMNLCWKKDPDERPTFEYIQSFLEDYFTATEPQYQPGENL

SMILES | inhibition at 0.1 µM (PLK1) [%] | inhibition at 1 µM (PLK1) [%] | inhibition at 0.1 µM (PI3-K-α) [%] | inhibition at 1 µM (PI3-K-α) [%] | inhibition at 0.1 µM (ROCK1) [%] | inhibition at 1 µM (ROCK1) [%] | inhibition at 0.1 µM (HIPK4) [%] | inhibition at 1 µM (HIPK4) [%] | inhibition at 0.1 µM (PASK) [%] | inhibition at 1 µM (PASK) [%] | inhibition at 0.1 µM (JAK1) [%] | inhibition at 1 µM (JAK1) [%] | inhibition at 0.1 µM (SPHK2) [%] | inhibition at 1 µM (SPHK2) [%] | inhibition at 0.1 µM (YES) [%] | inhibition at 1 µM (YES) [%] | ΔTm at 10 µM (ALK2) [°C] | ΔTmDiff. (ALK2) | ΔT ALK2 (ALK2) [°C] | ΔT Diff. (ALK2) [°C]
COc1cc(-c2cc(-c3ccc(N4CCNCC4)cc3)cnc2C)cc(OC)c1OC [Compound 10, 1-(4-(6-methyl-5-(3,4,5-trimethoxyphenyl)pyridin-3-yl)phenyl)piperazine] | 4 | 3 | 5 | 7 | 1 | 0 | 5 | 8 | 3 | 4 | 2 | 2 | 13 | 5 | 11 | 47 | 13.7 | 4.0 | 13.7 | 4.0
COc1cc(-c2cc(-c3ccc(N4CCNCC4)cc3)cnc2N)cc(OC)c1OC [Compound 15, 5-(4-(piperazin-1-yl)phenyl)-3-(3,4,5-trimethoxyphenyl)pyridin-2-amine] | 3 | 1 | 4 | 4 | 0 | 0 | 1 | 2 | 2 | 1 | 1 | 0 | 6 | -6 | 41 | 82 | 15.1 | 1.2 | 15.1 | 1.2
